target: T1, TrkA (Homo sapiens, UniProt P04629); experiment: Isolated TRK enzyme assay (HTRF KinEASE-TK kit), PV3144 TrkA enzyme assay; type: biochemical; conditions: PV3144 TrkA enzyme assay, recombinant His-tagged cytoplasmic domain aa 441-796, 4 nM enzyme, 40 uM ATP; arithmetic mean where more than one reading; read-out: Trka enzyme (IC50)
T1 construct: aa 441-796; His; purchased Invitrogen PV3144
How it was run: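 Recombinant His-tagged cytoplasmic domain of human TrkA, preactivated with ATP for 20 min, then 20 min with compound before biotinylated TK substrate (1 uM final) at room temperature. HTRF read at 665/620 nm; % inhibition normalised to reference-compound and DMSO controls, IC50 from sigmoid fit, mean of replicates.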

T1 sequence (P04629 441-796): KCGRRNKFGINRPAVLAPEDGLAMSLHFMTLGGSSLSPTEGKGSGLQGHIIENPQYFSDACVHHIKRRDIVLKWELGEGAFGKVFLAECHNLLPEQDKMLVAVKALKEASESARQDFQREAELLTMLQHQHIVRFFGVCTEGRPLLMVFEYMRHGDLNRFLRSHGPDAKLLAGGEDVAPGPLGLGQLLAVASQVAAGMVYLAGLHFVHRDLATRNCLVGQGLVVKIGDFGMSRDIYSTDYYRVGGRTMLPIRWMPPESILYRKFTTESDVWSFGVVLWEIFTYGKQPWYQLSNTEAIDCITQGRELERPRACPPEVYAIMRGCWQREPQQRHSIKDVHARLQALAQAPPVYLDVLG

| SMILES | IC50 |
| --- | --- |
| Cc1ccn(CC(=O)Nc2cc(C(=O)c3cn(C(C)C)c4ncncc34)ccn2)n1 [Example 70, 2-(3-methyl-1H-pyrazol-1-yl)-N-(4-{[7-(propan-2-yl)-7H-pyrrolo[2,3-d]pyrimidin-5-yl]carbonyl}pyridin-2-yl)acetamide] | 144 nM |
| CC(CO)n1cc(C(=O)c2ccnc(NC(=O)Cc3ccc(C#N)cc3)c2)c2cncnc21 (single isomer, unassigned) [Example 34, 2-(4-cyanophenyl)-N-(4-{[7-(1-hydroxypropan-2-yl)-7H-pyrrolo[2,3-d]pyrimidin-5-yl]carbonyl}pyridin-2-yl)acetamide] | 332 nM |
| Cc1cc(C(F)(F)F)nn1CC(=O)Nc1ccnc(C(=O)c2cn([C@@H](C)CO)c3ncncc23)c1 [Example 20, N-[2-({7-[(2S)-1-hydroxypropan-2-yl]-7H-pyrrolo[2,3-d]pyrimidin-5-yl}carbonyl)pyridin-4-yl]-2-[5-methyl-3-(trifluoromethyl)-1H-pyrazol-1-yl]acetamide] | 120 nM |
| CS(=O)(=O)c1cccc(CC(=O)Nc2cc(C(=O)c3cn(CCO)c4ncncc34)ccn2)c1 [Example 131, N-(4-{[7-(2-hydroxyethyl)-7H-pyrrolo[2,3-d]pyrimidin-5-yl]carbonyl}pyridin-2-yl)-2-[3-(methylsulfonyl)phenyl]acetamide] | 1110 nM |
| O=C(Cc1ccc(C(F)(F)F)cc1)Nc1ccnc(C(=O)c2cn(C(CO)CO)c3ncncc23)c1 [Example 93, N-(2-{[7-(1,3-dihydroxypropan-2-yl)-7H-pyrrolo[2,3-d]pyrimidin-5-yl]carbonyl}pyridin-4-yl)-2-[4-(trifluoromethyl)phenyl]acetamide] | 164 nM |
| CC(CO)n1cc(C(=O)c2ccnc(NC(=O)Cc3ccc(C#N)cc3)c2)c2cncnc21 (racemic) [Example 32, 2-(4-cyanophenyl)-N-(4-{[7-(1-hydroxypropan-2-yl)-7H-pyrrolo[2,3-d]pyrimidin-5-yl]carbonyl}pyridin-2-yl)acetamide] | 101 nM |

Molecules with a lower IC50, results first:

| IC50 | SMILES |
| --- | --- |
| 21.5 nM | O=C(Cc1cccc(OC(F)(F)F)c1)Nc1cc(C(=O)c2cn(CCO)c3ncncc23)ccn1 [Example 135, N-(4-{[7-(2-hydroxyethyl)-7H-pyrrolo[2,3-d]pyrimidin-5-yl]carbonyl}pyridin-2-yl)-2-[3-(trifluoromethoxy)phenyl]acetamide] |
| 5.93 nM | CC(C)(CO)n1cc(C(=O)c2ccc(C#N)c(NC(=O)Cc3ccc(C(F)(F)F)cc3)c2)c2cnc(N)nc21 [Example 7, N-{5-[2-Amino-7-(2-hydroxy-1,1-dimethyl-ethyl)-7H-pyrrolo[2,3-d]pyrimidine-5-carbonyl]-2-cyano-phenyl}-2-(4-trifluoromethyl-phenyl)-acetamide] |
| 94.8 nM | C[C@@H](CO)n1cc(C(=O)c2cc(NC(=O)Cc3ccc(C#N)cc3)ccn2)c2cncnc21 [Example 15, 2-(4-cyanophenyl)-N-[2-({7-[(2S)-1-hydroxypropan-2-yl]-7H-pyrrolo[2,3-d]pyrimidin-5-yl}carbonyl)pyridin-4-yl]acetamide] |
| 8.82 nM | CC(C)n1cc(C(=O)c2ccnc(NC(=O)Cc3ccc(F)cc3F)c2)c2cncnc21 [Example 118, 2-(2,4-difluorophenyl)-N-(4-{[7-(propan-2-yl)-7H-pyrrolo[2,3-d]pyrimidin-5-yl]carbonyl}pyridin-2-yl)acetamide] |
| 76.1 nM | CC(C)n1cc(C(=O)c2cc(NC(=O)Cn3cc(C4CC4)nn3)ccn2)c2cncnc21 [Example 82, 2-(4-cyclopropyl-1H-1,2,3-triazol-1-yl)-N-(2-{[7-(propan-2-yl)-7H-pyrrolo[2,3-d]pyrimidin-5-yl]carbonyl}pyridin-4-yl)acetamide] |
| 71.1 nM | CC(C)n1cc(C(=O)c2ccnc(NC(=O)Cc3ccccc3OC(F)(F)F)c2)c2cncnc21 [Example 119, N-(4-{[7-(propan-2-yl)-7H-pyrrolo[2,3-d]pyrimidin-5-yl]carbonyl}pyridin-2-yl)-2-[2-(trifluoromethoxy)phenyl]acetamide] |

— patent US20150218172A1, “Pyrrolo[2,3-D]Pyrimidine Tropomyosin-Related Kinase Inhibitors” (PFIZER LIMITED, priority 2012, published 2015)
